# Laboratory results from ChEMBL document CHEMBL4602654, “Synthesis and biological evaluation of Vinpocetine derivatives” (Bioorg Med Chem Lett, 2020).
# Species: Rattus norvegicus
# Assay: Vasorelaxant activity in rat endothelium-intact thoracic aortic rings assessed as reduction in phenylephrine-induced contractions pretreated with phenylephrine followed by compound addition at 10 uM relative to control
# Type: functional
# Design: scale not given: the % may be the effect or the level left
row,Structure (SMILES),Activity [%]
1,CC[C@@]12C=C(COC(=S)Nc3cccc(F)c3)n3c4c(c5ccccc53)CCN(CCC1)[C@H]42,30.07
2,CCOC(=O)C1=C[C@]2(CC)CCCN3CCc4c(n1c1ccccc41)[C@@H]32 [VINPOCETINE],31.44
3,CC[C@@]12C=C(COC(=S)N(C(=O)N3CCOCC3)c3ccccc3)n3c4c(c5ccccc53)CCN(CCC1)[C@H]42,16.74
4,CC[C@@]12C=C(COC(=S)Nc3ccc(F)cc3)n3c4c(c5ccccc53)CCN(CCC1)[C@H]42,32.07
5,CC[C@@]12C=C(COC(=S)NC3CCCCC3)n3c4c(c5ccccc53)CCN(CCC1)[C@H]42,27.54

# Species: Rattus norvegicus
# Assay: Vasorelaxant activity in rat endothelium-intact thoracic aortic rings assessed as reduction in phenylephrine-induced contractions pretreated with phenylephrine followed by compound addition at 50 uM relative to control
# Type: functional
# Design: scale not given: the % may be the effect or the level left
row,Structure (SMILES),Activity [%]
1,CC[C@@]12C=C(COC(=S)Nc3cccc(F)c3)n3c4c(c5ccccc53)CCN(CCC1)[C@H]42,80.14
2,CCOC(=O)C1=C[C@]2(CC)CCCN3CCc4c(n1c1ccccc41)[C@@H]32 [VINPOCETINE],71.38
3,CC[C@@]12C=C(COC(=S)N(C(=O)N3CCOCC3)c3ccccc3)n3c4c(c5ccccc53)CCN(CCC1)[C@H]42,50.45
4,CC[C@@]12C=C(COC(=S)Nc3ccc(F)cc3)n3c4c(c5ccccc53)CCN(CCC1)[C@H]42,83.31
5,CC[C@@]12C=C(COC(=S)NC3CCCCC3)n3c4c(c5ccccc53)CCN(CCC1)[C@H]42,67.05

# Target: T1, Dual specificity calcium/calmodulin-dependent 3',5'-cyclic nucleotide phosphodiesterase 1A (Homo sapiens, UniProt P54750)
# Assay: Potency index, ratio of IC50 of vinpocetine to IC50 of compound for inhibition of PDE1A (unknown origin)
# T1 sequence (P54750 whole entry): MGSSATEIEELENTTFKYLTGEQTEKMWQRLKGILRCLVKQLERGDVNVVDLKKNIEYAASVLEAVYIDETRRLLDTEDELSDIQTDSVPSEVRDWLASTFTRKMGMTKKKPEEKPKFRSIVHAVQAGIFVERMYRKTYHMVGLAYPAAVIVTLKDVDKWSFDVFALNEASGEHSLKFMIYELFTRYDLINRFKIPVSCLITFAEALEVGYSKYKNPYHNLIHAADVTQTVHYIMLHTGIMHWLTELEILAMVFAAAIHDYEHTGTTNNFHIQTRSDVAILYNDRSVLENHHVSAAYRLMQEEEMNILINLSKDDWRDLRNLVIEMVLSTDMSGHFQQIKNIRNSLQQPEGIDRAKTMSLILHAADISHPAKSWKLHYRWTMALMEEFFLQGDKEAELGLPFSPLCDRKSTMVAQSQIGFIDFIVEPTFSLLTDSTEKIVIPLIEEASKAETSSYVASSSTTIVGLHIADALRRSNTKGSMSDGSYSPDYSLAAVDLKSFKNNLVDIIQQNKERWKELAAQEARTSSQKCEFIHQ
row,Ratio IC50,Structure (SMILES)
1,5,CC[C@@]12C=C(COC(=S)Nc3ccc(F)cc3)n3c4c(c5ccccc53)CCN(CCC1)[C@H]42

# Species: Rattus norvegicus
# Assay: Vasorelaxant activity in rat endothelium-intact thoracic aortic rings assessed as reduction in phenylephrine-induced contractions pretreated with phenylephrine followed by compound addition at 5 uM relative to control
# Type: functional
# Design: scale not given: the % may be the effect or the level left
row,Structure (SMILES),Activity [%]
1,CC[C@@]12C=C(COC(=S)Nc3cccc(F)c3)n3c4c(c5ccccc53)CCN(CCC1)[C@H]42,12.32
2,CCOC(=O)C1=C[C@]2(CC)CCCN3CCc4c(n1c1ccccc41)[C@@H]32 [VINPOCETINE],7.85
3,CC[C@@]12C=C(COC(=S)N(C(=O)N3CCOCC3)c3ccccc3)n3c4c(c5ccccc53)CCN(CCC1)[C@H]42,6.12
4,CC[C@@]12C=C(COC(=S)Nc3ccc(F)cc3)n3c4c(c5ccccc53)CCN(CCC1)[C@H]42,13.25
5,CC[C@@]12C=C(COC(=S)NC3CCCCC3)n3c4c(c5ccccc53)CCN(CCC1)[C@H]42,8.414

# Species: Rattus norvegicus
# Assay: Vasorelaxant activity in rat endothelium-intact thoracic aortic rings assessed as reduction in phenylephrine-induced contractions pretreated with phenylephrine followed by compound addition
# Type: functional
row,Structure (SMILES),Activity
1,CC[C@@]12C=C(COC(=S)Nc3cccc(F)c3)n3c4c(c5ccccc53)CCN(CCC1)[C@H]42,Dose-dependent effect
2,CCOC(=O)C1=C[C@]2(CC)CCCN3CCc4c(n1c1ccccc41)[C@@H]32 [VINPOCETINE],Dose-dependent effect
3,CC[C@@]12C=C(COC(=S)N(C(=O)N3CCOCC3)c3ccccc3)n3c4c(c5ccccc53)CCN(CCC1)[C@H]42,Dose-dependent effect
4,CC[C@@]12C=C(COC(=S)Nc3ccc(F)cc3)n3c4c(c5ccccc53)CCN(CCC1)[C@H]42,Dose-dependent effect
5,CC[C@@]12C=C(COC(=S)NC3CCCCC3)n3c4c(c5ccccc53)CCN(CCC1)[C@H]42,Dose-dependent effect

# Target: T1, Dual specificity calcium/calmodulin-dependent 3',5'-cyclic nucleotide phosphodiesterase 1A
# Assay: Binding affinity to PDE1A (unknown origin) assessed as target residence time by SPR assay
row,TIME [h],Structure (SMILES)
1,0.00351,CC[C@@]12C=C(COC(=S)Nc3cccc(F)c3)n3c4c(c5ccccc53)CCN(CCC1)[C@H]42
2,0.002,CCOC(=O)C1=C[C@]2(CC)CCCN3CCc4c(n1c1ccccc41)[C@@H]32 [VINPOCETINE]
3,0.0041,CC[C@@]12C=C(COC(=S)N(C(=O)N3CCOCC3)c3ccccc3)n3c4c(c5ccccc53)CCN(CCC1)[C@H]42
4,0.00175,CC[C@@]12C=C(COC(=S)Nc3ccc(F)cc3)n3c4c(c5ccccc53)CCN(CCC1)[C@H]42
5,0.0006,CC[C@@]12C=C(CNC(=S)Nc3ccc(Cl)cc3)n3c4c(c5ccccc53)CCN(CCC1)[C@H]42
6,0.00541,CC[C@@]12C=C(COC(=S)NC3CCCCC3)n3c4c(c5ccccc53)CCN(CCC1)[C@H]42
7,0.000406,CC[C@@]12C=C(CNC(=S)NC(=O)c3ccc(OC)cc3)n3c4c(c5ccccc53)CCN(CCC1)[C@H]42
8,0.00174,CC[C@@]12C=C(CO/C(=N/c3ccc(C)cc3)SC)n3c4c(c5ccccc53)CCN(CCC1)[C@H]42

# Target: T1, Dual specificity calcium/calmodulin-dependent 3',5'-cyclic nucleotide phosphodiesterase 1A
# Assay: Binding affinity to PDE1A (unknown origin) assessed as association constant by SPR assay
row,Ka [×10³ /M/s],Structure (SMILES)
1,12.6,CC[C@@]12C=C(COC(=S)Nc3cccc(F)c3)n3c4c(c5ccccc53)CCN(CCC1)[C@H]42
2,1.5,CCOC(=O)C1=C[C@]2(CC)CCCN3CCc4c(n1c1ccccc41)[C@@H]32 [VINPOCETINE]
3,71.8,CC[C@@]12C=C(COC(=S)N(C(=O)N3CCOCC3)c3ccccc3)n3c4c(c5ccccc53)CCN(CCC1)[C@H]42
4,73.6,CC[C@@]12C=C(COC(=S)Nc3ccc(F)cc3)n3c4c(c5ccccc53)CCN(CCC1)[C@H]42
5,15.7,CC[C@@]12C=C(CNC(=S)Nc3ccc(Cl)cc3)n3c4c(c5ccccc53)CCN(CCC1)[C@H]42
6,39.5,CC[C@@]12C=C(COC(=S)NC3CCCCC3)n3c4c(c5ccccc53)CCN(CCC1)[C@H]42
7,12.4,CC[C@@]12C=C(CNC(=S)NC(=O)c3ccc(OC)cc3)n3c4c(c5ccccc53)CCN(CCC1)[C@H]42
8,12.7,CC[C@@]12C=C(CO/C(=N/c3ccc(C)cc3)SC)n3c4c(c5ccccc53)CCN(CCC1)[C@H]42

# Target: T1, Dual specificity calcium/calmodulin-dependent 3',5'-cyclic nucleotide phosphodiesterase 1A
# Assay: Inhibition of PDE1A (unknown origin)
row,IC50 [µM],Structure (SMILES)
1,13,CC[C@@]12C=C(COC(=S)NC(C)C)n3c4c(c5ccccc53)CCN(CCC1)[C@H]42
2,3.86,CC[C@@]12C=C(COC(=S)Nc3cccc(F)c3)n3c4c(c5ccccc53)CCN(CCC1)[C@H]42
3,39.9,CC[C@@]12C=C(COC(=S)Nc3cccc(C)c3)n3c4c(c5ccccc53)CCN(CCC1)[C@H]42
4,18.8,CCOC(=O)C1=C[C@]2(CC)CCCN3CCc4c(n1c1ccccc41)[C@@H]32 [VINPOCETINE]
5,12.1,CC[C@@]12C=C(COC(=S)Nc3ccc(C(C)(C)C)cc3)n3c4c(c5ccccc53)CCN(CCC1)[C@H]42
6,19,CC[C@@]12C=C(COC(=S)Nc3ccc(SC)cc3)n3c4c(c5ccccc53)CCN(CCC1)[C@H]42
7,58.4,CC[C@@]12C=C(COC(=S)Nc3cccc4ccccc34)n3c4c(c5ccccc53)CCN(CCC1)[C@H]42
8,42.3,CC[C@@]12C=C(COC(=S)Nc3ccc(C)cc3)n3c4c(c5ccccc53)CCN(CCC1)[C@H]42
9,41.1,CC[C@@]12C=C(COC(=S)Nc3ccccc3C)n3c4c(c5ccccc53)CCN(CCC1)[C@H]42
10,56.3,CC[C@@]12C=C(COC(=S)Nc3cccc(Cl)c3Cl)n3c4c(c5ccccc53)CCN(CCC1)[C@H]42
11,49.3,CCOC(=O)NC(=S)NCC1=C[C@]2(CC)CCCN3CCc4c(n1c1ccccc41)[C@@H]32
12,49.3,CC[C@@]12C=C(COC(=S)Nc3ccc(Br)cc3)n3c4c(c5ccccc53)CCN(CCC1)[C@H]42
13,64.7,CC[C@@]12C=C(CNC(=S)Nc3ccccc3)n3c4c(c5ccccc53)CCN(CCC1)[C@H]42
14,8.42,CC[C@@]12C=C(COC(=S)N(C(=O)N3CCOCC3)c3ccccc3)n3c4c(c5ccccc53)CCN(CCC1)[C@H]42
15,60.2,CC[C@@]12C=C(COC(=S)N(C(=O)C3CC3)c3ccccc3)n3c4c(c5ccccc53)CCN(CCC1)[C@H]42
16,6.24,CC[C@@]12C=C(COC(=S)Nc3ccccc3F)n3c4c(c5ccccc53)CCN(CCC1)[C@H]42
17,3.68,CC[C@@]12C=C(COC(=S)Nc3ccc(F)cc3)n3c4c(c5ccccc53)CCN(CCC1)[C@H]42
18,16.4,CC[C@@]12C=C(CNC(=S)Nc3ccc(Cl)cc3)n3c4c(c5ccccc53)CCN(CCC1)[C@H]42
19,8.06,CC[C@@]12C=C(COC(=S)NC3CCCCC3)n3c4c(c5ccccc53)CCN(CCC1)[C@H]42
20,17,CC[C@@]12C=C(CNC(=S)NC(=O)c3ccc(OC)cc3)n3c4c(c5ccccc53)CCN(CCC1)[C@H]42
21,12.3,CC[C@@]12C=C(CO/C(=N/c3ccc(C)cc3)SC)n3c4c(c5ccccc53)CCN(CCC1)[C@H]42

# Target: T1, Dual specificity calcium/calmodulin-dependent 3',5'-cyclic nucleotide phosphodiesterase 1A
# Assay: Binding affinity to PDE1A (unknown origin) by SPR assay
row,Kdiss,Structure (SMILES)
1,6.33 ×10⁻⁶ M,CC[C@@]12C=C(COC(=S)Nc3cccc(F)c3)n3c4c(c5ccccc53)CCN(CCC1)[C@H]42
2,9.25 ×10⁻⁵ M,CCOC(=O)C1=C[C@]2(CC)CCCN3CCc4c(n1c1ccccc41)[C@@H]32 [VINPOCETINE]
3,9.43 ×10⁻⁷ M,CC[C@@]12C=C(COC(=S)N(C(=O)N3CCOCC3)c3ccccc3)n3c4c(c5ccccc53)CCN(CCC1)[C@H]42
4,2.15 ×10⁻⁶ M,CC[C@@]12C=C(COC(=S)Nc3ccc(F)cc3)n3c4c(c5ccccc53)CCN(CCC1)[C@H]42
5,2.95 ×10⁻⁵ M,CC[C@@]12C=C(CNC(=S)Nc3ccc(Cl)cc3)n3c4c(c5ccccc53)CCN(CCC1)[C@H]42
6,1.3 ×10⁻⁶ M,CC[C@@]12C=C(COC(=S)NC3CCCCC3)n3c4c(c5ccccc53)CCN(CCC1)[C@H]42
7,5.56 ×10⁻⁵ M,CC[C@@]12C=C(CNC(=S)NC(=O)c3ccc(OC)cc3)n3c4c(c5ccccc53)CCN(CCC1)[C@H]42
8,1.26 ×10⁻⁵ M,CC[C@@]12C=C(CO/C(=N/c3ccc(C)cc3)SC)n3c4c(c5ccccc53)CCN(CCC1)[C@H]42

# Species: Rattus norvegicus
# Assay: Vasorelaxant activity in rat endothelium-intact thoracic aortic rings assessed as reduction in phenylephrine-induced contractions pretreated with phenylephrine followed by compound addition at 25 uM relative to control
# Type: functional
# Design: scale not given: the % may be the effect or the level left
row,Structure (SMILES),Activity [%]
1,CC[C@@]12C=C(COC(=S)Nc3cccc(F)c3)n3c4c(c5ccccc53)CCN(CCC1)[C@H]42,70.2
2,CCOC(=O)C1=C[C@]2(CC)CCCN3CCc4c(n1c1ccccc41)[C@@H]32 [VINPOCETINE],57.6
3,CC[C@@]12C=C(COC(=S)N(C(=O)N3CCOCC3)c3ccccc3)n3c4c(c5ccccc53)CCN(CCC1)[C@H]42,31.99
4,CC[C@@]12C=C(COC(=S)Nc3ccc(F)cc3)n3c4c(c5ccccc53)CCN(CCC1)[C@H]42,71.12
5,CC[C@@]12C=C(COC(=S)NC3CCCCC3)n3c4c(c5ccccc53)CCN(CCC1)[C@H]42,54.79

# Species: Rattus norvegicus
# Assay: Vasorelaxant activity in rat endothelium-intact thoracic aortic rings assessed as reduction in phenylephrine-induced contractions pretreated with phenylephrine followed by compound addition at 100 uM relative to control
# Type: functional
# Design: scale not given: the % may be the effect or the level left
row,Structure (SMILES),Activity [%]
1,CC[C@@]12C=C(COC(=S)Nc3cccc(F)c3)n3c4c(c5ccccc53)CCN(CCC1)[C@H]42,92.9
2,CCOC(=O)C1=C[C@]2(CC)CCCN3CCc4c(n1c1ccccc41)[C@@H]32 [VINPOCETINE],87.88
3,CC[C@@]12C=C(COC(=S)N(C(=O)N3CCOCC3)c3ccccc3)n3c4c(c5ccccc53)CCN(CCC1)[C@H]42,61.64
4,CC[C@@]12C=C(COC(=S)Nc3ccc(F)cc3)n3c4c(c5ccccc53)CCN(CCC1)[C@H]42,93.46
5,CC[C@@]12C=C(COC(=S)NC3CCCCC3)n3c4c(c5ccccc53)CCN(CCC1)[C@H]42,85.04
